± gives the expanded uncertainty stated by the source.
Conditions: 298.15 K; 101.33 kPa; Liquid; Vibrating tube method

| SMILES | molar volume |
| --- | --- |
| CCCN [propan-1-amine] | 8.315e-05 ± 1e-07 m3/mol |
| CCCCN [1-butanamine] | 9.987e-05 ± 1e-07 m3/mol |
| CC(C)CCN [3-methyl-1-butanamine] | 0.000117 ± 1.1e-07 m3/mol |
| CCCCCCCCCN [1-aminononane] | 0.0001829 ± 1.8e-07 m3/mol |
| CCCCCCCCCCN [1-decanamine] | 0.000199 ± 2e-07 m3/mol |
| CCC(C)N (stereo not drawn) [2-butanamine] | 0.0001019 ± 1.1e-07 m3/mol |
| CC(C)(C)N [2-methyl-2-propanamine] | 0.0001065 ± 1e-07 m3/mol |
| CCCCCCCN [1-heptanamine] | 0.0001496 ± 1.1e-07 m3/mol |
| CCCCCN [1-pentanamine] | 0.0001163 ± 1.1e-07 m3/mol |
| CCC(N)CC [1-ethylpropylamine] | 0.0001172 ± 2.4e-07 m3/mol |
| CC(C)CN [2-methyl-1-propanamine] | 0.000101 ± 1e-07 m3/mol |
| CCCCCCCCN [1-octanamine] | 0.0001662 ± 1.1e-07 m3/mol |
| CCCCCCC [heptane] | 0.0001475 ± 1.1e-07 m3/mol |
| CCCCCCCCCCCCN [1-dodecanamine] | 0.0002323 ± 2e-07 m3/mol |
| CCC(C)(C)N [1,1-dimethylpropylamine] | 0.0001192 ± 1.3e-07 m3/mol |
| CCCCCCCCCCCCCCN [1-tetradecanamine] | 0.0002655 ± 1e-07 m3/mol |
| CCCCCCN [1-hexanamine] | 0.0001331 ± 1.1e-07 m3/mol |
| CC(C)N [2-propanamine] | 8.672e-05 ± 1e-07 m3/mol |

Reference: the NIST ThermoML archive (doi:10.1016/j.jct.2010.12.025)
